Laboratory results taken from patent US10668043B2, “Potentiated antimicrobial agents” (priority 2014, dated 2020).
In brackets after ≈: the same amount, converted by molar mass.

Legend:
[1] = tested on: E. coli; assay: Double dilution test; type: cell-based
Text: (§1) The double dilution test is a MIC measurement test made on successive dilutions of the 2 products of the composition. […] The summary table expresses for each strain and for each dilution of the booster the measured antibiotic MIC.
(§2) The code enabling the results to be interpreted is the following one: no sign “^+” if the MIC is equivalent with and without booster, a sign “^+” if the value is lower with booster.

[2] = tested on: Staphylococcus; assay: Double dilution test; type: cell-based; settings: strain 8148
Text: as §1, §2

[3] = tested on: E. coli; assay: etest on agar containing the booster; type: cell-based; parameters: MIC (e-test): unit not given beside the values
Text: (§3) The corresponding tests are made based on the usual MIC test: the etest® (Biomerieux) strip is deposited onto the surface of a seeded agar medium in which the booster has been incorporated. This test enables solvent effect risks, that is a possible interaction with the solvent used in vitro, to be minimised.
(§4) The control corresponds to the test made without cineol. A control is made in each solvent tested: distilled water, Tween/water and DMSO. • ED control=antibiotic alone in distilled water • DMSO control=antibiotic alone in DMSO • TE control=antibiotic alone in Tween® 80

[4] = tested on: Staphylococcus; assay: etest on agar containing the booster; type: cell-based; parameters: MIC (e-test): unit not given beside the values
Text: as §3, §4

[5] = tested on: Pasteurella; assay: etest on agar containing the booster; type: cell-based
Text: The corresponding tests are made based on the usual MIC test: the etest® (Biomerieux) strip is deposited onto the surface of a seeded agar medium in which the booster has been incorporated.
as §4
Other e-tests are also made on Pasteurella.

[6] = tested on: MSSA 8238; settings: Balb/c, mouse, in vivo
Method: To Balb/c mice, is injected (Sc.) the antimicrobial product or the antimicrobial+booster mixture.
At different post-injection times, the mice are euthanised, and blood sampled, heparined and centrifuged to extract plasma thereof
Antibacterial effects are measured after 24 h incubation. The successive dilutions enable the antimicrobial effect to be determined and compared with the MIC. The efficient concentration/MIC ratio is thus determined.

Compound: CC1(C)S[C@@H]2[C@H](NC(=O)[C@H](N)c3ccc(O)cc3)C(=O)N2[C@H]1C(=O)O [Amox, amoxicillin]
- amoxicillin MIC ([1]; strain 8137, Amox, cineol 0): 8 µg/mL
- amoxicillin MIC ([1]; strain 8137, cineol 10 mg/L): 0.5^+
- amoxicillin MIC ([1]; strain 8137, cineol 20 mg/L): 8 µg/mL
- amoxicillin MIC ([1]; strain 8137, cineol 37.5 mg/L): 8 µg/mL
- amoxicillin MIC ([1]; strain 8137, cineol 75 mg/L): 8 µg/mL
- amoxicillin MIC ([1]; strain 8137, cineol 150 mg/L): 8 µg/mL
- amoxicillin MIC ([1]; strain 8137, cineol 300 mg/L): 8 µg/mL
- amoxicillin MIC ([1]; strain 8137, cineol 600 mg/L): 8 µg/mL
- amoxicillin MIC ([1]; strain 8137, cineol 2,500 mg/L): 8 µg/mL
- amoxicillin MIC ([1]; strain 8137, cineol 5,000 mg/L): 8 µg/mL
- amoxicillin MIC ([1]; strain 8137, cineol 25,000 mg/L): 4^+
- amoxicillin MIC ([1]; strain 8137, cineol 50,000 mg/L): 0.25^+
- amoxicillin MIC ([1]; strain 8137, cineol […]): 8 µg/mL
- amoxicillin MIC ([1]; strain 8151, Amox, cineol 0): 8 µg/mL
- amoxicillin MIC ([1]; strain 8151, cineol 10 mg/L): 0.5^+
- amoxicillin MIC ([1]; strain 8151, cineol 20 mg/L): 8 µg/mL
- amoxicillin MIC ([1]; strain 8151, cineol 37.5 mg/L): 8 µg/mL
- amoxicillin MIC ([1]; strain 8151, cineol 75 mg/L): 8 µg/mL
- amoxicillin MIC ([1]; strain 8151, cineol 150 mg/L): 8 µg/mL
- amoxicillin MIC ([1]; strain 8151, cineol 300 mg/L): 8 µg/mL
- amoxicillin MIC ([1]; strain 8151, cineol 600 mg/L): 8 µg/mL
- amoxicillin MIC ([1]; strain 8151, cineol 2,500 mg/L): 8 µg/mL
- amoxicillin MIC ([1]; strain 8151, cineol 5,000 mg/L): 8 µg/mL
- amoxicillin MIC ([1]; strain 8151, cineol 10,000 mg/L): 4^+
- amoxicillin MIC ([1]; strain 8151, cineol 25,000 mg/L): 4^+
- amoxicillin MIC ([1]; strain 8151, cineol 50,000 mg/L): 0.25^+
- amoxicillin MIC ([1]; strain 8151, cineol […]): 8 µg/mL
- amoxicillin MIC ([1]; strain 8155, Amox, cineol 0): 8 µg/mL
- amoxicillin MIC ([1]; strain 8155, cineol 10 mg/L): 0.5^+
- amoxicillin MIC ([1]; strain 8155, cineol 20 mg/L): 8 µg/mL
- amoxicillin MIC ([1]; strain 8155, cineol 37.5 mg/L): 8 µg/mL
- amoxicillin MIC ([1]; strain 8155, cineol 75 mg/L): 8 µg/mL
- amoxicillin MIC ([1]; strain 8155, cineol 150 mg/L): 8 µg/mL
- amoxicillin MIC ([1]; strain 8155, cineol 300 mg/L): 8 µg/mL
- amoxicillin MIC ([1]; strain 8155, cineol 600 mg/L): 8 µg/mL
- amoxicillin MIC ([1]; strain 8155, cineol 2,500 mg/L): 8 µg/mL
- amoxicillin MIC ([1]; strain 8155, cineol 5,000 mg/L): 8 µg/mL
- amoxicillin MIC ([1]; strain 8155, cineol 10,000 mg/L): 8 µg/mL
- amoxicillin MIC ([1]; strain 8155, cineol 25,000 mg/L): 4^
- amoxicillin MIC ([1]; strain 8155, cineol 50,000 mg/L): 0.25^+
- amoxicillin MIC ([1]; strain 8155, cineol […]): 8 µg/mL
- amoxicillin MIC ([1]; strain 8156, Amox, cineol 0): 8 µg/mL
- amoxicillin MIC ([1]; strain 8156, cineol 10 mg/L): 0.5^+
- amoxicillin MIC ([1]; strain 8156, cineol 20 mg/L): 8 µg/mL
- amoxicillin MIC ([1]; strain 8156, cineol 37.5 mg/L): 8 µg/mL
- amoxicillin MIC ([1]; strain 8156, cineol 75 mg/L): 8 µg/mL
- amoxicillin MIC ([1]; strain 8156, cineol 150 mg/L): 8 µg/mL
- amoxicillin MIC ([1]; strain 8156, cineol 300 mg/L): 8 µg/mL
- amoxicillin MIC ([1]; strain 8156, cineol 600 mg/L): 8 µg/mL
- amoxicillin MIC ([1]; strain 8156, cineol 2,500 mg/L): 16 µg/mL
- amoxicillin MIC ([1]; strain 8156, cineol 5,000 mg/L): 8 µg/mL
- amoxicillin MIC ([1]; strain 8156, cineol 10,000 mg/L): 8 µg/mL
- amoxicillin MIC ([1]; strain 8156, cineol 25,000 mg/L): 8^
- amoxicillin MIC ([1]; strain 8156, cineol 50,000 mg/L): 4^+
- amoxicillin MIC ([1]; strain 8156, cineol […]): 8 µg/mL
- amoxicillin MIC ([1]; strain ATCC 25922, Amox, cineol 0): 8 µg/mL
- amoxicillin MIC ([1]; strain ATCC 25922, cineol 10 mg/L): 0.5^+
- amoxicillin MIC ([1]; strain ATCC 25922, cineol 20 mg/L): 8 µg/mL
- amoxicillin MIC ([1]; strain ATCC 25922, cineol 37.5 mg/L): 8 µg/mL
- amoxicillin MIC ([1]; strain ATCC 25922, cineol 75 mg/L): 8 µg/mL
- amoxicillin MIC ([1]; strain ATCC 25922, cineol 150 mg/L): 8 µg/mL
- amoxicillin MIC ([1]; strain ATCC 25922, cineol 300 mg/L): 8 µg/mL
- amoxicillin MIC ([1]; strain ATCC 25922, cineol 600 mg/L): 8 µg/mL
- amoxicillin MIC ([1]; strain ATCC 25922, cineol 2,500 mg/L): 16 µg/mL
- amoxicillin MIC ([1]; strain ATCC 25922, cineol 5,000 mg/L): 8 µg/mL
- amoxicillin MIC ([1]; strain ATCC 25922, cineol 25,000 mg/L): 4^+
- amoxicillin MIC ([1]; strain ATCC 25922, cineol 50,000 mg/L): 0.06^+
- amoxicillin MIC ([1]; strain ATCC 25922, cineol […]): 8 µg/mL
- amoxicillin MIC ([2]; Amox, cineol 0): 8 µg/mL
- amoxicillin MIC ([2]; cineol 10 mg/L): 0.5^+
- amoxicillin MIC ([2]; cineol 20 mg/L): 8 µg/mL
- amoxicillin MIC ([2]; cineol 37.5 mg/L): 8 µg/mL
- amoxicillin MIC ([2]; cineol 75 mg/L): 8 µg/mL
- amoxicillin MIC ([2]; cineol 150 mg/L): 8 µg/mL
- amoxicillin MIC ([2]; cineol 300 mg/L): 8 µg/mL
- amoxicillin MIC ([2]; cineol 600 mg/L): 8 µg/mL
- amoxicillin MIC ([2]; cineol 2,500 mg/L): 8 µg/mL
- amoxicillin MIC ([2]; cineol 5,000 mg/L): 8 µg/mL
- amoxicillin MIC ([2]; cineol 10,000 mg/L): 4 µg/mL
- amoxicillin MIC ([2]; cineol 25,000 mg/L): 16^
- amoxicillin MIC ([2]; cineol 50,000 mg/L): 0.25^+
- amoxicillin MIC ([2]; cineol […]): 8 µg/mL
- MIC (e-test) ([3]; strain 8141, Cineol 4 mg/L, DMSO): 6^+
- MIC (e-test) ([3]; strain 8141, Cineol 16 mg/L, DMSO): 0.1^+
- MIC (e-test) ([3]; strain 8141, ED control, no cineol): 8^+
- MIC (e-test) ([3]; strain 8150, Cineol 4 mg/L, DMSO): 6^+
- MIC (e-test) ([3]; strain 8150, Cineol 16 mg/L, DMSO): 0.1^+
- MIC (e-test) ([3]; strain 8150, ED control, no cineol): 8^+
- MIC (e-test) ([3]; strain 8156, Cineol 4 mg/L, DMSO): 8^+
- MIC (e-test) ([3]; strain 8156, Cineol 16 mg/L, DMSO): 8^+
- MIC (e-test) ([3]; strain 8156, ED control, no cineol): 12^+
- MIC (e-test) ([3]; strain ATCC25922, Cineol 4 mg/L, DMSO): 12^+
- MIC (e-test) ([3]; strain ATCC25922, Cineol 16 mg/L, DMSO): 12^+
- MIC (e-test) ([3]; strain ATCC25922, ED control, no cineol): 16^+
- MIC (e-test) ([4]; strain 8143, Cineol 4 mg/L, DMSO): 1.5^+
- MIC (e-test) ([4]; strain 8143, Cineol 16 mg/L, DMSO): 1.5^+
- MIC (e-test) ([4]; strain 8143, ED control, no cineol): 2^+
- MIC (e-test) ([4]; strain 8146, Cineol 4 mg/L, DMSO): 0.38^+
- MIC (e-test) ([4]; strain 8146, Cineol 16 mg/L, DMSO): 0.19^+
- MIC (e-test) ([4]; strain 8146, ED control, no cineol): 0.5^+
- MIC (e-test) ([4]; strain 8149, Cineol 4 mg/L, DMSO): 0.5^+
- MIC (e-test) ([4]; strain 8149, Cineol 16 mg/L, DMSO): 0.38^+
- MIC (e-test) ([4]; strain 8149, ED control, no cineol): 1^+
- MIC (e-test) ([4]; strain 8240, Cineol 4 mg/L, DMSO): 12^+
- MIC (e-test) ([4]; strain 8240, Cineol 16 mg/L, DMSO): 16^+
- MIC (e-test) ([4]; strain 8240, ED control, no cineol): 24^+
- MIC (e-test) ([4]; strain 8241, Cineol 4 mg/L, DMSO): 8^+
- MIC (e-test) ([4]; strain 8241, Cineol 16 mg/L, DMSO): 12^+
- MIC (e-test) ([4]; strain 8241, ED control, no cineol): 32^+
- MIC (e-test) ([4]; strain 10168, Cineol 4 mg/L, DMSO): 1^+
- MIC (e-test) ([4]; strain 10168, Cineol 16 mg/L, DMSO): 1^+
- MIC (e-test) ([4]; strain 10168, ED control, no cineol): 2^+
- MIC (e-test) ([5]; strain 14012, 5 mg cineol DMSO): 0.094 µg/mL (≈ 0.257 µM)
- MIC (e-test) ([5]; strain 14012, 5 mg cineol TE): 0.094 µg/mL (≈ 0.257 µM)
- MIC (e-test) ([5]; strain 14012, 5 mg cineol water): 0.094 µg/mL (≈ 0.257 µM)
- MIC (e-test) ([5]; strain 14012, 10 mg cineol TE): 0.094 µg/mL (≈ 0.257 µM)
- MIC (e-test) ([5]; strain 14012, 10 mg cineol water): 0.094 µg/mL (≈ 0.257 µM)
- MIC (e-test) ([5]; strain 14012, DMSO control): 0.094 µg/mL (≈ 0.257 µM)
- MIC (e-test) ([5]; strain 14012, ED control): 0.032 µg/mL (≈ 0.0876 µM)
- MIC (e-test) ([5]; strain 14012, TE control): 0.19 µg/mL (≈ 0.52 µM)
- MIC (e-test) ([5]; strain 14013, 5 mg cineol DMSO): 0.25 µg/mL (≈ 0.684 µM)
- MIC (e-test) ([5]; strain 14013, 5 mg cineol TE): 0.25 µg/mL (≈ 0.684 µM)
- MIC (e-test) ([5]; strain 14013, 5 mg cineol water): 0.25 µg/mL (≈ 0.684 µM)
- MIC (e-test) ([5]; strain 14013, 10 mg cineol DMSO): 0.25 µg/mL (≈ 0.684 µM)
- MIC (e-test) ([5]; strain 14013, 10 mg cineol water): 0.19 µg/mL (≈ 0.52 µM)
- MIC (e-test) ([5]; strain 14013, DMSO control): 0.19 µg/mL (≈ 0.52 µM)
- MIC (e-test) ([5]; strain 14013, ED control): 0.19 µg/mL (≈ 0.52 µM)
- MIC (e-test) ([5]; strain 14013, TE control): 0.25 µg/mL (≈ 0.684 µM)
- MIC (e-test) ([5]; strain 14014, 5 mg cineol DMSO): 0.094 µg/mL (≈ 0.257 µM)
- MIC (e-test) ([5]; strain 14014, 5 mg cineol TE): 0.094 µg/mL (≈ 0.257 µM)
- MIC (e-test) ([5]; strain 14014, 5 mg cineol water): 0.19 µg/mL (≈ 0.52 µM)
- MIC (e-test) ([5]; strain 14014, 10 mg cineol TE): 0.094 µg/mL (≈ 0.257 µM)
- MIC (e-test) ([5]; strain 14014, ED Control): 0.094 µg/mL (≈ 0.257 µM)
- MIC (e-test) ([5]; strain 14014, TE control): 0.094 µg/mL (≈ 0.257 µM)
- Time spent beyond the MIC [6]: <5 h
